Assay results published in US9555057B2, “Compositions and methods for reducing cutaneous microbiome malodor” (The Research Foundation for The State University of New York, priority 2014, dated 2017).
Entries after “also recorded” stand apart in the source; their conditions may differ.

How the values were obtained:
[1] = system: C. striatum, Staph. epidermidis and a mixture of the two; test: Growth (colony counts on BHI agar) during 72 hour incubation with CIL, phenylalanine, zinc carbonate with or without arginine bicarbonate; format: cell-based
Protocol: The bacterial sediments produced upon centrifugation and decantation of the supernatants were stirred and made into a uniform suspension. C. striatum and Staph. epidermidis were mixed with each of C. striatum and Staph. epidermidis at 25% (v/v).
Zinc carbonate was autoclaved and suspended in sterile distilled water. All other stock solutions were sterilized by microbial filtration (Nylon, Sterile filter, pore size […], Fisher Scientific, Fairlawn, N.J. USA).
Difco BHI agar was poured into petri dish plates under sterile conditions and pre-incubated at 37° C. for 24 hours before use to ensure sterility.
The experimental and negative control samples were prepared as follows:
The final concentrations of the bacteria, C. striatum and Staph. epidermidis were each 8.3% (v/v) and the mixture of C. striatum and Staph. epidermidis were 4.15% (v/v) each.
Serial dilution of each of the samples between 10^0 and 10^10 was made. An aliquot of 100 μl from each 10^0 to 10^10 dilution was inoculated onto BHI agar plates. […] Bacterial growth was regularly checked. This was the initial test before the incubation was started.
Four successive diluted samples were selected and grown to proper densities of bacterial colonies on the agar plates; for example, 10^4 to 10^7 were appropriate dilutions for all samples in the instant experiment. Incubation of all samples (experimental and control) were continued at 37° C. for 24, 48 or 72 hours; 100 μl of each sample were taken and chosen at 4 consequent dilutions and inoculated on BHI agar plates for incubation for 24, 48 and 72 hours, respectively. Plating on BHI agar plates and incubation at 37° C. for 24 to 48 hours were carried out and bacterial growth on the BHI agar plates were checked.
The number of bacterial colonies on each plate was assessed. The plates inoculated with the mixture of C. striatum and Staph. epidermidis (i.e., Samples I and IV in the Table of Media compositions above) were counted and the number of colonies of C. striatum and Staph. epidermidis were determined from the photos of the plates.

[2] = system: Staph. epidermidis (ATCC 12228); test: Kirby-Bauer disk diffusion susceptibility test; format: cell-based, Staphylococcus epidermidis
From the text: (§1) C. striatum and Staph. epidermidis are among the most prevalent bacteria that comprise the human cutaneous microbiota. […] The purpose of this segment was to examine whether formulations arising out of the studies reported in the prior sections that favor the growth and metabolism of Staph. epidermidis as a desirable skin entity that can inhibit the growth of C. striatum, a less desirable entity, and do so when both microorganisms are present initially at the same levels. In this regard, an adaptation of the Kirby-Bauer disk diffusion susceptibility test appeared to be relevant for such determination.
(§2) Here we have grown less than desirable C. striatum and highly desirable Staph. epidermidis, alone and in combination, under a variety of substrate conditions to determine, if the latter micro-organism could be selected over C. striatum and thereby be used as a means of reducing the presence of less desirable odor-producing C. striatum.
(§3) Compositions indicated as possible suppressants of C. striatum and/or enhancers of Staph. epidermidis were based on the prior studies above and for convenience of presentation were categorized as possible active test ingredients and then formulae and mixtures in which they were tested. Accordingly, the total number of compositions tested was eight. Careful attention was paid to sterility throughout in the preparation and handling of the compounds and compositions utilized herein.
(§4) Each of these formulae were prepared at 4 different concentrations: original as in (b), and 1.5, 2.5 and 7.5 times the original concentration. Again, all formulae were prepared under aseptic conditions.
To make compositions 1.5 times the original concentration listed above, formulae 7.5 times the original concentrations were diluted a factor of 5 with sterile distilled water. […]
Each strain was determined as resistant, intermediate, or susceptible to the ingredients, formulae and mixtures tested. After 24 hours of incubation at 37° C., the diameter of the zone of growth inhibition around each disk was measured to the nearest whole mm. […]

[3] = system: C. striatum, Staph. epidermidis or a 1:1 mixture thereof; details: zinc acetate, CIL and either arginine or arginine bicarbonate, pH 4.0 to 8.0, 4 hours, no phenylalanine
From the text: The pH of the medium with each of the different zinc salts needed some adjustment, which was done with 1 M HCl or 1 M NaOH depending upon the pH of the stock solutions of each zinc salt employed.

C. striatum (ATCC 43751) = test: Kirby-Bauer disk diffusion susceptibility test; format: cell-based, Corynebacterium striatum; details: for Intensity of inhibition of the growth of C. striatum (CS): Blood BHI agar plate, 37° C., 24 hours
From the text: as §1, §2, §3, §4
To make compositions 1.5 times the original concentration listed above, formulae 7.5 times the original concentrations were diluted a factor of 5 with sterile distilled water. To make compositions 2.5 times the original concentration listed above, formulae 7.5 times the original concentrations were diluted three-fold with sterile distilled water. To summarize: a total of 3 ingredients, 2 formulae and 2 mixtures were tested. A total of 20 disks were prepared for tests of susceptibility to each bacterial sample and these are outlined in Table 5.2 below:
A TB syringe with a 25-27 G sterile needle was used to help break up the remains of any pellets. […] Plating Procedures • Five bacterial samples of C. striatum and Staph. epidermidis were plated on Blood BHI agar and CHROMagar plates, respectively. • 100 μl of each bacterial sample was inoculated on Blood BHI agar plates by using sterile glass bars and a turning table to facilitate each bacterial sample being spread evenly on each of the agar plates. • Each spread bacterial suspension was allowed to dry on inoculated plates for five minutes. • Paper disks were immersed, respectively, with the above 3 ingredients, 2 formulae and 2 mixtures; absorptions were saturated. • Four disks were placed on each plate with sterile forceps. • Incubated plates within 15 minutes after applying the disks to ensure test was under standardized conditions, where diffusion of the ingredients and formulae and bacterial growth commence at approximately the same time. Plates were incubated at 37° C. for 24 hours. Interpretation of Results
Each strain was determined as resistant, intermediate, or susceptible to the ingredients, formulae and mixtures tested. After 24 hours of incubation at 37° C., the diameter of the zone of growth inhibition around each disk was measured to the nearest whole mm. Plates were carefully examined for well-developed colonies within the zone of inhibition.

[4] = system: mixture of C. striatum and Staph. epidermidis in the ratio of 1 to 1; test: Zinc carbonate / arginine bicarbonate on odor and pH, CIL and phenylalanine medium; format: cell-based; details: for pH after incubation: arginine bicarbonate with zinc carbonate
[5] = pH and solubility of solutions, suspensions and formulae; format: physicochemical; details: 36 mM (zinc acetate and zinc carbonate also 72 mM)
Staph. haemolyticus = test: Arginolysis: pH during incubation with arginine; format: cell-based, Staphylococcus haemolyticus; details: 6.0 mM arginine, 4 hours
Protocol: (§5) Each microorganism was recovered from its frozen state at −70° C. and grown at 37° C. in 10 ml of appropriate and respective culture media for a period between 24 and 48 hours (see Table 1). Incubations were carried out to middle and late exponential stages of bacterial growth under the incubation conditions indicated in Table 1. A 1.5 ml inoculum was transferred therefrom to polypropylene bottles containing 150 ml of the initial growth medium. This was then incubated at 37° C. for 24 to 48 hours. Bacteria were harvested by centrifugation (DuPone, Sorvall, Newtown, Conn.) at 10,000 g and 4° C. for 20 min. The volume of bacterial pellet obtained was between about 2.5 and 3.5 ml. The sediment was then washed with sterile distilled water to remove residual growth medium. This was done by centrifuging the bacterial sediment three times at 1,740 g for 15 min at 4° C. […]

[6] = system: pure cultures of microorganisms resident on human axillary skin; details: 6.0 mM arginine; Staph. epidermidis, Staph. haemolyticus and P. avidum
Protocol: Pure cultures of the numerically most prominent microorganisms normally resident on human axillary skin (see Table 1) were surveyed for their effects on (i) pH, (ii) Eh, (iii) ability to generate malodor and (iv) ability to generate hydrogen peroxide. Four hour incubation experiments were conducted, in which each of a wide range of carbohydrate and amino acid substrates (see Table 1) were surveyed for malodor production and related changes in pH and Eh thereto.
Each microorganism was recovered from its frozen state at −70° C. and grown at 37° C. in 10 ml of appropriate and respective culture media for a period between 24 and 48 hours (see Table 1). Incubations were carried out to middle and late exponential stages of bacterial growth under the incubation conditions indicated in Table 1. A 1.5 ml inoculum was transferred therefrom to polypropylene bottles containing 150 ml of the initial growth medium. This was then incubated at 37° C. for 24 to 48 hours. Bacteria were harvested by centrifugation (DuPone, Sorvall, Newtown, Conn.) at 10,000 g and 4° C. for 20 min. […] The sediment was then washed with sterile distilled water to remove residual growth medium. This was done by centrifuging the bacterial sediment three times at 1,740 g for 15 min at 4° C.
Each pure culture was pre-incubated at 37° C. at pH 7.0 to exhaust or reduce any stored carbohydrate and other carbon/energy sources acquired during growth in culture.
Both of these electrodes were connected to a second pH meter (pH M26 Radiometer Copenhagen NV, Denmark) and used here as a millivoltmeter. For the Eh measurements, when the Eh electrode was immersed in an incubation mixture, each Eh reading was recorded after allowing several seconds for each reading to stabilize. The Eh value was related to that of the hydrogen electrode by adding to each reading the difference between the E0 value for the Red Rod reference element-mercury and hydrogen electrodes—i.e. 270 my at 25° C.
At each time point, the odor was determined organoleptically by immersing a solid glass rod into each incubation mixture, stirring gently 3 times and then removing and carefully smelling the rod after 5 seconds. The intensity of the odor was assessed on a 0 to 4 numerical scale (0—no odor, 1—mild odor, 2—moderate odor, 3—strong odor, and 4—very strong odor).

P. avidum = test: Arginolysis: pH during incubation with arginine; format: cell-based, Propionibacterium avidum; details: 6.0 mM arginine
Protocol: as §5

Staph. epidermidis = test: Arginolysis: pH during incubation with arginine; format: cell-based, Staphylococcus epidermidis; details: 6.0 mM arginine
Protocol: as §5

[7] = zinc compound alone, levels tested (1%, 3%, 5%)
[8] = 3% and 5%, Blood BHI agar plates
[9] = concentration 5%, paper disk 12.7 mm

Molecule	Sulfurous odor and Eh [3]	Sensitivity of Staph. epidermidis (in words) [2, 7]	Sensitivity of C. striatum (in words) (C. striatum (ATCC 43751); 1%, Blood BHI agar)	Sensitivity of C. striatum (in words) (C. striatum (ATCC 43751); [8])	Diameter of the zone of growth inhibition, C. striatum (C. striatum (ATCC 43751); concentration 3%) [mm]	Partial or complete inhibition, C. striatum (C. striatum (ATCC 43751); concentration 3%)	Intensity of inhibition of the growth of C. striatum (CS) (C. striatum (ATCC 43751); concentration 3%)	Partial or complete inhibition, C. striatum (C. striatum (ATCC 43751); concentration 5%)	Intensity of inhibition of the growth of C. striatum (CS) (C. striatum (ATCC 43751); concentration 5%)	Diameter of the zone of growth inhibition, C. striatum (C. striatum (ATCC 43751); [9]) [mm]	other results
N=C(N)NCCC[C@H](N)C(=O)O.O=C(O)O [Arginine bicarbonate, arginine bicarbonate]	No sulfurous odor nor corresponding decrease in the Eh										Decrease of number of colonies ([1]; 12 mM zinc carbonate, CIL, phenylalanine, with versus without 12 mM arginine bicarbonate, 37° C., 72 hours): without arginine bicarbonate decreased sooner; Colonies found in the mixture ([1]; media with arginine bicarbonate, 48 and 72 hours): Only colonies of Staph. epidermidis were discovered; Staph. epidermidis share of colonies in the mixture ([1]; media with arginine bicarbonate, 24 hours, 65% at 0 hours): 90%; Sensitivity of Staph. epidermidis (in words) ([2]; at either 1% or 5%): neither C. striatum nor Staph. epidermidis was susceptible; Sensitivity of C. striatum (in words) (C. striatum (ATCC 43751); at either 1% or 5% levels): neither C. striatum nor Staph. epidermidis was susceptible; pH maintained ([4]; 12.0 mM arginine bicarbonate, CIL and phenylalanine, 37° C., 4 hours): about 8.0; pH after incubation ([4]; medium originally at pH 6.0): 6.8; pH after incubation ([4]; medium originally at pH 7.0): 7.8; pH after incubation ([4]; medium originally at pH 8.0): 8.0
[Cl-].[Cl-].[Zn+2] [Zinc chloride]											pH of stock solution in de-ionized water [5]: 6.7
NCC(=O)[O-].NCC(=O)[O-].[Zn+2] [Zinc glycinate, zinc glycinate]		not sensitive	not sensitive	viability loss; also recorded: sensitive	14	(p)	+ ((+) the diameter of inhibition <15 mm)	(p)	++ ((++) the diameter of inhibition 15-20 mm)	17	
N=C(N)NCCC[C@H](N)C(=O)O [arginine]	No sulfurous odor nor corresponding decrease in the Eh										pH reached during arginolysis (Staph. haemolyticus): 8.2; Odor during arginolysis [6]: No odor of significance; pH rise above the level with Staph. epidermidis (P. avidum): about 0.3 pH units; pH of the incubation mixture (Staph. epidermidis; end of the 4 hours of incubation): 7.7; pH of the incubation mixture (Staph. epidermidis; start pH 7.0, within the first 15 min): 7.4
basic zinc carbonate (ZnCO3. 3 Zn(OH)2)		not sensitive	not sensitive	viability loss; also recorded: sensitive	14	(p)	+ ((+) the diameter of inhibition <15 mm)	(p)	++ ((++) the diameter of inhibition 15-20 mm)	15	Partial or complete inhibition, C. striatum (C. striatum (ATCC 43751); concentration 1%): (p); Intensity of inhibition of the growth of C. striatum (CS) (C. striatum (ATCC 43751); concentration 1%): ±; Sulfurous odor ([4]; medium with zinc carbonate, CIL and phenylalanine, pH 4.0 to 8.0, 4 hours): no sulfurous odor was observed
